Columns and labels:
Molm14 F691L cells = assay: Cell viability assay (CellTiter GLO), Molm14 F691L; type: cell-based, human; details: 48 hours
Description: (§1) FIG. 1. […] Cells were treated with inhibitor at increasing log doses (0.1 nM-10 μM) for 48 hours. Cell viability was analyzed through CellTiter GLO. […] Cells were exposed to increasing amounts of each drug for 2 hours. GAPDH1 represents loading control for phospho-ERK and ERK blots. GAPDH2 represents loading control for phosphor-STAT5, STAT5, phospho-S6 and S6. Each experiment was completed in triplicate. Representative images are shown.
(§2) FIG. 5. […] Cells were dosed with inhibitor at increasing log doses (0.1 nM-10 μM) for 48 hours. Cell viability was analyzed through CellTiter GLO.
(§3) MV-4-11 and parental Molm-14 cells were a gift from Dr. Scott Kogan (University of California, San Francisco). HL60 and K562 cell lines were obtained from Charles Sawyers. […] Stable Ba/F3 lines were generated by retroviral infection as previously described (5). All cell lines were tested to be mycoplasma free and human cell lines were authenticated through STR profiling completed at the University of California, Berkeley.
(§4) Each triplicate was either dosed with drug or DMSO vehicle control. Drug dosing was completed at log doses ranging from 0.1 nM-10 μM. Cell viability was assessed after 48 hours using CellTiter GLO (Promega). Viability values were normalized to the vehicle control average. Numerical IC50 values were calculated in GraphPad Prism 7.

Molm14 D835Y cells = assay: Cell viability assay (CellTiter GLO), Molm14 D835Y; type: cell-based, human; details: 48 hours
Description: as §1, §2, §3, §4

[1] = test system: normal donor bone marrow mononuclear cells (BM-MNC); assay: Colony forming unit assay of normal bone marrow
Description: FIG. 2. […] Normal bone marrow mononuclear cells (BM-MNC) were purchased from StemCell Technologies. 30,000 cells were plated in methylcellulose with increasing concentrations of either gilteritinib, 1, or 2. Blast forming unit-erythroid (BFU-E) and colony forming unit-granulocyte (CFU-G) were counted after 14 days incubation. Assay was completed in triplicate with three independent blood donors. Data shown is cumulated from all independent experiments. Error bars show one standard deviation and p values compared to control were calculated using a Student's t-test. NS indicates an insignificant p value, * indicates p value≤0.05, ** indicates p value≤0.01, *** indicates p value≤0.001, **** indicates p value≤0.0001
Bone marrow mononuclear cells (BM-MNC) of healthy donors (n=3) were purchased from StemCell Technologies (Vancouver, Canada). Cells were plated in a 35 mm dish in triplicate with methylcellulose medium at a concentration previously determined to form approximately 100 total colonies, usually 30,000 cells/mL and containing the appropriate amount of drug. Dishes were incubated for 14-15 days and visually assessed for erythrocyte burst-forming units and granulocyte-macrophage colony-forming units.

[2] = test system: Molm-14 F691L cells stably expressing firefly luciferase; assay: Circulating tumor model, Molm14 F691L luciferase; type: in vivo; details: mice
Description: FIG. 7. […] Molm14 F691L stably expressing FLuc9 were engrafted in mice through tail vein injection. Mice were imaged once every three days.
Molm-14 F691L cells stably expressing firefly luciferase were injected into the tail vein of NSG mice and tumor growth was monitored through bioluminescence.

SMILES | activity in cell viability assay (IC50, FIG. 1A/5B), in words (Molm14 F691L cells) | activity in cell viability assay (IC50, FIG. 1A/5B), in words (Molm14 D835Y cells) | impact on CFU-G counts/growth ([1]; equivalent multiples of Molm14 IC50, 14 days, three healthy donors) | impact on BFU-E counts/growth ([1]; human, 14 days) | maximally tolerated dose [2]
CC(C)(C)c1cc(NC(=O)Nc2ccc(-c3cn4c(n3)sc3cc(OCCN5CCOCC5)ccc34)cc2)no1 [quizartinib, reference compound] | severely diminished activity | severely diminished activity | – | – | –
CCc1nc(C(N)=O)c(Nc2ccc(N3CCC(N4CCN(C)CC4)CC3)c(OC)c2)nc1NC1CCOCC1 [gilteritinib, reference compound] | – | – | substantial impairment in BFU-E and CFU-G counts at 50× and 100×IC50 | substantial impairment in BFU-E and CFU-G counts at 50× and 100×IC50 | 33 mg/kg
